Source: PubChem BioAssay AID624129 (Sanford-Burnham Center for Chemical Genomics, 2012)
The source made the active and inactive calls. How the calls were made is not given here.

Columns and labels:
Test in all cases: CXCR6 receptor antagonists, dose response, cell-based, beta-arrestin, DiscoveRx, APJ panel, uHTS hits (AID 624129)
[1] = molecular target: Apelin receptor (Homo sapiens) (UniProt P35414); details: CXCR6 beta-arrestin (DiscoveRx) antagonist cell assay, APJ
[2] = molecular target: Beta-galactosidase (Escherichia coli) (UniProt Q8VNN2); details: CXCR6 beta-arrestin (DiscoveRx) antagonist cell assay, b-galactosidase
[3] = molecular target: C-X-C chemokine receptor type 6 (Homo sapiens) (UniProt O00574); details: CXCR6 beta-arrestin (DiscoveRx) antagonist cell assay
[4] = molecular target: C-C chemokine receptor type 6 (Homo sapiens) (UniProt P51684); details: CXCR6 beta-arrestin (DiscoveRx) antagonist cell assay
[5] = dose range 1, mean IC50 across replicates
[6] = CXCR6, dose range 1, mean IC50 across replicates
[7] = CCR6, dose range 1, mean IC50 across replicates
[8] = CXCR6, run 1, dose range 2, at 80 µM (top of the series)

Sequence of Beta-galactosidase (Escherichia coli) (Q8VNN2 whole entry, looked up): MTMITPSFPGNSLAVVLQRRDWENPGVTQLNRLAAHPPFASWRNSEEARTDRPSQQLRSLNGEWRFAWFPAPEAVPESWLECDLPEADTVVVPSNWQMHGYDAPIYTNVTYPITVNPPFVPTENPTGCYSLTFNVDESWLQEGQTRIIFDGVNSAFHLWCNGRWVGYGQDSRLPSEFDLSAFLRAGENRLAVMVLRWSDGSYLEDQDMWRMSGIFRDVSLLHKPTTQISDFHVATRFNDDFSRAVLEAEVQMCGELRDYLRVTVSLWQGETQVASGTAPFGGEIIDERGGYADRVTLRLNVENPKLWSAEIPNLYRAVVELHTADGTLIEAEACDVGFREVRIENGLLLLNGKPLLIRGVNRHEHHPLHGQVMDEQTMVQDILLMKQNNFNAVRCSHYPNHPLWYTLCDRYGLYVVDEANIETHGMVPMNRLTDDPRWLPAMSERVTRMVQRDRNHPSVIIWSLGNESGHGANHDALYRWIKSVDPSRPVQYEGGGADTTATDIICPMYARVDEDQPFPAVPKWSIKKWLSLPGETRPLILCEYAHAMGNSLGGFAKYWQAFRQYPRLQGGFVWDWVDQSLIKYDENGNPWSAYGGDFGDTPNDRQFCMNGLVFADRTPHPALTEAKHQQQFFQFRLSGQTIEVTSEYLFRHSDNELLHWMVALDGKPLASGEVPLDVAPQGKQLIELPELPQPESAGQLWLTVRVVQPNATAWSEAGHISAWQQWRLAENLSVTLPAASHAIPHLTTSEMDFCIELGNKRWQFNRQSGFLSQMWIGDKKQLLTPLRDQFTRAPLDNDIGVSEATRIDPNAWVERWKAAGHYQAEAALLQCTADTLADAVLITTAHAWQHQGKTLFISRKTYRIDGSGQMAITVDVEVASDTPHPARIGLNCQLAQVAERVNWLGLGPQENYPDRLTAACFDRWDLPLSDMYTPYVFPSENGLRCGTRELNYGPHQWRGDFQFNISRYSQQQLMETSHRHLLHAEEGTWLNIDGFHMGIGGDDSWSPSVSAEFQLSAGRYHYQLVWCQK
Sequence of C-X-C chemokine receptor type 6 (Homo sapiens) (O00574 whole entry, looked up): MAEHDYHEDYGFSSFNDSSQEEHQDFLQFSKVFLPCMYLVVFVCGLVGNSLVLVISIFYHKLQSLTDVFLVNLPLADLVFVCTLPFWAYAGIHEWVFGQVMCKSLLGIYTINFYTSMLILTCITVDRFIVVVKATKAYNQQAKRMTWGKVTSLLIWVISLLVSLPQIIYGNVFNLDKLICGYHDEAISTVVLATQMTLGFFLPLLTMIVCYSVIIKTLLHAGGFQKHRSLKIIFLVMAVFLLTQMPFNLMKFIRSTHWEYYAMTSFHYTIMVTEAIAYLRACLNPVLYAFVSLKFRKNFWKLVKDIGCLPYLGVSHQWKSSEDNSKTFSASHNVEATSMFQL

SMILES | IC50 ([1]; dose range 1) | IC50 [1, 5] [µM] | IC50 ([1]; run 2, dose range 1) [µM] | IC50 ([1]; run 3, dose range 1) [µM] | IC50 ([2]; dose range 1) | IC50 [2, 5] [µM] | IC50 ([3]; CXCR6, dose range 1) | IC50 [3, 6] [µM] | IC50 ([3]; CXCR6, run 1, dose range 2) [µM] | IC50 ([3]; CXCR6, run 2, dose range 1) [µM] | IC50 ([3]; CXCR6, run 2, dose range 2) [µM] | IC50 ([4]; CCR6, dose range 1) [µM] | IC50 [4, 7] [µM] | IC50 ([4]; CCR6, run 2, dose range 1) [µM] | inhibition [3, 8] [%] | inhibition ([3]; CXCR6, run 1, dose range 2, at 20 µM (top of the series)) [%]
Cc1ccc(NC(=S)N/N=C/c2ccc([N+](=O)[O-])s2)cc1 | 9.42 µM | 19.2 | 18.1 | 30 | 31.3 µM | 31.3 | 9.1 µM | 7.46 | 5.64 | 8.89 | 6.21 | 3.88 | 5.06 | 6.24 |  | 
O=[N+]([O-])c1c(NCCCO)cc(Sc2ccc(Cl)cc2)c2nonc12 | > 80 µM (inactive) | > 80 | > 80 | > 80 | > 80 µM (inactive) | > 80 | inactive | 11.3 | 3.9 | > 80 | 3.24 | 2.58 | 12.9 | 23.2 |  | 
CC(Oc1ccc(Br)cc1)C(=O)Nc1nc(-c2ccccn2)cs1 (stereo not given) | 6.97 µM | 5.95 | 5.67 | 5.22 | > 80 µM (inactive) | > 80 | 6.74 µM | 5.51 | 4.23 | 6.13 | 4.93 | 5.51 | 6.66 | 7.8 |  | 
O=C(Nc1nccs1)c1sc2cc(Cl)ccc2c1Cl | 48.2 µM | 46.8 | 45.4 | > 80 | > 80 µM (inactive) | > 80 | inactive | 19 | 7.2 | 46.1 | 10.3 | 9.63 | 10.1 | 10.6 |  | 
COc1ccc(-c2csc(Cc3nc(O)cs3)n2)cc1 | 4.5 µM | 4.96 | 5.92 | 4.47 | > 80 µM (inactive) | > 80 | 4.12 µM | 4.09 | 3.66 | 4.68 | 3.91 | 2.8 | 3.45 | 4.1 |  | 
Cn1c(O)c(C2=NNC(c3ccc(Cl)cc3)C2)c(=O)n(C)c1=O (stereo not given) | 9.91 µM | 13.1 | 20 | 9.47 | 26.3 µM | 26.3 | inactive | 11.7 | 6.31 | 17 | 8.11 | 11.2 | 13.6 | 16 |  | 
O=[N+]([O-])c1cc2oc3c(c2c(C=NCc2ccccc2)c1O)CCCC3 | 25.5 µM | 25.5 | > 80 | > 80 | > 80 µM (inactive) | > 80 | inactive | 20.9 | 4.04 | > 80 | 6.46 | 27.3 | 39.8 | 52.2 |  | 
O=C(Nc1cccc(C(F)(F)F)c1)Oc1ccc(Cl)c2cccnc12 | 0.347 µM | 0.41 | > 80 | 0.463 | > 80 µM (inactive) | > 80 | 0.874 µM | 0.702 |  | 0.53 |  | 0.491 | 0.54 | 0.589 | 53.2 | 
Cc1ccc(OCCN2C(=O)c3ccccc3C2=O)c([N+](=O)[O-])c1 | 4.29 µM | 5.81 | 7.87 | 5.29 | > 80 µM (inactive) | > 80 | 6.4 µM | 5.31 | 5.94 | 4.95 | 3.96 | 8.16 | 6.82 | 5.48 |  | 
O=C1N[C@H](Cc2ccccc2)COC(=O)[C@H](Cc2ccc(F)cc2)CC/C=C/C[C@H]1CC(=O)N(CCO)Cc1ccccc1 |  | 4.7 | > 80 | 4.7 | > 80 µM (inactive) | > 80 | 3.29 µM | 5.31 |  | 7.32 |  | 5.96 | 7.08 | 8.19 |  | 67.7
Oc1c(I)cc(Cl)c2cccnc12 | 3.72 µM | 18.7 | 12.7 | 39.6 | > 80 µM (inactive) | > 80 | 6.47 µM | 4.36 |  | 2.24 |  | 5.29 | 6.44 | 7.59 | 49.5 | 
CCCCCCN1C=C/C(=C\C=C(C#N)C#N)c2ccccc21 | 26.9 µM | 35.4 | 52.3 | 27.1 | > 80 µM (inactive) | > 80 | inactive | 42.5 |  | 43.9 |  | 23.4 | 19.9 | 16.3 | 158 | 
Cc1c(Cl)sn(-c2ccc(Cl)cc2)c1=O | 16.4 µM | 22.8 | 14.4 | 37.5 | > 80 µM (inactive) | > 80 | 8.91 µM | 9.37 | 11.2 | 7.95 | 9.39 | 3.26 | 3.71 | 4.17 |  | 
CC(C)(C)c1ccc(CN2N=Nc3ccccc3S2(=O)=O)cc1 | 13.3 µM | 25.6 | 27.9 | 35.5 | > 80 µM (inactive) | > 80 | inactive | 16.3 |  | 20 |  | 11.2 | 17.2 | 23.1 | 142 | 
O=C(Nc1ccccc1Cl)/C(Cl)=C(\Cl)S(=O)c1ccccc1 (stereo not given) | 12.7 µM | 11.7 | 11.9 | 10.5 | > 80 µM (inactive) | > 80 | 9.69 µM | 9.93 | 9.44 | 10.4 | 10.2 | 8.58 | 8.32 | 8.05 |  | 
C/C(=N\NC(=O)C(C)Oc1ccc([N+](=O)[O-])cc1)c1ccccn1 (stereo not given) | 3.43 µM | 8.09 | 3.41 | 17.4 | > 80 µM (inactive) | > 80 | 6.22 µM | 3.92 | 2.75 | 4.5 | 2.23 | 2.61 | 3.11 | 3.6 |  | 
COc1ccc(/C=C/c2ccc3cccc(O)c3n2)c(OC)c1OC | 4.95 µM | 6.97 | 8.96 | 6.98 | > 80 µM (inactive) | > 80 | 5 µM | 4.12 | 3.43 | 5.18 | 2.88 | 3.71 | 3.08 | 2.45 |  | 
O=C1C=CC(=O)N1c1ccccc1N1C(=O)C=CC1=O |  | > 80 | > 80 | > 80 | > 80 µM (inactive) | > 80 | > 80 µM (inactive) | > 80 |  | > 80 |  |  | > 80 | > 80 | 42.9 | 
S=C(N/N=C/c1ccccc1)N1CCOCC1 | 6.85 µM | 7 | 7.06 | 7.08 | > 80 µM (inactive) | > 80 | 7.03 µM | 6.19 | 4.47 | 8.46 | 4.81 | 5.59 | 6.34 | 7.09 |  | 
CCN(c1ccccc1)S(=O)(=O)c1ccc(NC(=O)c2nc(S(C)(=O)=O)ncc2Cl)cc1 | 16.2 µM | 16 | 15.3 | 16.4 | > 80 µM (inactive) | > 80 | 10.8 µM | 10.9 | 10.5 | 11.5 | 10.8 | 11.6 | 11 | 10.3 |  | 
CCOc1ccc(N(CC(=O)N/N=C/c2ccccn2)S(=O)(=O)c2ccc(Cl)cc2)cc1 | 14.4 µM | 14.2 | > 80 | 13.9 | > 80 µM (inactive) | > 80 | inactive | 27.1 | 10.4 | 61.1 | 11.9 | 11.4 | 12.7 | 13.9 |  | 
